ChEMBL document CHEMBL1201862, “PubChem BioAssay data set” (2004)
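Interpolation was linear, between the two tested concentrations surrounding the appropriate level; five concentrations were tested over 48 hours in 96-well plates. GI50 = concentration required for 50% inhibition of growth.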 The source made the active and inactive calls. Cut-off read from the data, not from the text of the source: active = GI50 up to about 1.1 µM and inactive = higher.

What was measured:
Assay in all cases: NCI-60 cell line screen, 48 h
COLO 205 = system: COLO 205
MOLT-4 = system: MOLT-4
SN12C = system: SN12C
KM-20L2 = system: KM-20L2
U-251 = system: U-251
NCI-H23 = system: NCI-H23
EKVX = system: EKVX
CCRF-CEM = system: CCRF-CEM
RPMI-8226 = system: RPMI-8226
LOX IMVI = system: LOX IMVI
HL-60 = system: HL-60
HOP-62 = system: HOP-62
Malme-3M = system: Malme-3M
NCI-H226 = system: NCI-H226
SK-OV-3 = system: SK-OV-3
OVCAR-5 = system: OVCAR-5
CAKI-1 = system: CAKI-1
HOP-92 = system: HOP-92

## CN(C)c1ccc(-c2cc(O)c3cc4c(cc3n2)OCO4)cc1
COLO 205
  GI50: > 100 µM (inactive)
MOLT-4
  GI50: > 100 µM (inactive)
SN12C
  GI50: > 100 µM (inactive)
KM-20L2
  GI50: > 100 µM (inactive)
U-251
  GI50: > 100 µM (inactive)
NCI-H23
  GI50: > 100 µM (inactive)
EKVX
  GI50: > 100 µM (inactive)
CCRF-CEM
  GI50: > 100 µM (inactive)
RPMI-8226
  GI50: > 100 µM (inactive)
LOX IMVI
  GI50: > 100 µM (inactive)
HL-60
  GI50: > 100 µM (inactive)
HOP-62
  GI50: 73.5 µM (inactive)
Malme-3M
  GI50: > 100 µM (inactive)
NCI-H226
  GI50: > 100 µM (inactive)

## C=CCC1(CC)C(=O)NC(=O)NC1=O [ETALLOBARBITAL]
COLO 205
  GI50: > 100 µM (inactive)
MOLT-4
  GI50: > 100 µM (inactive)
SN12C
  GI50: > 100 µM (inactive)
KM-20L2
  GI50: > 100 µM (inactive)
U-251
  GI50: > 100 µM (inactive)
NCI-H23
  GI50: > 100 µM (inactive)
EKVX
  GI50: > 100 µM (inactive)
CCRF-CEM
  GI50: > 100 µM (inactive)
RPMI-8226
  GI50: > 100 µM (inactive)
LOX IMVI
  GI50: > 100 µM (inactive)
HL-60
  GI50: > 100 µM (inactive)
SK-OV-3
  GI50: > 100 µM (inactive)
HOP-62
  GI50: > 100 µM (inactive)
Malme-3M
  GI50: > 100 µM (inactive)
NCI-H226
  GI50: > 100 µM (inactive)

## CCCCC1(C)C=C/C(=C2/C(=O)O/C(=C\C(=O)O)C2=O)O1 (centres undefined)
COLO 205
  GI50: > 100 µM (inactive)
MOLT-4
  GI50: > 100 µM (inactive)
SN12C
  GI50: > 100 µM (inactive)
OVCAR-5
  GI50: > 100 µM (inactive)
KM-20L2
  GI50: > 100 µM (inactive)
U-251
  GI50: > 100 µM (inactive)
NCI-H23
  GI50: > 100 µM (inactive)
EKVX
  GI50: > 100 µM (inactive)
CCRF-CEM
  GI50: > 100 µM (inactive)
RPMI-8226
  GI50: > 100 µM (inactive)
LOX IMVI
  GI50: > 100 µM (inactive)
HL-60
  GI50: > 100 µM (inactive)
SK-OV-3
  GI50: > 100 µM (inactive)
HOP-62
  GI50: > 100 µM (inactive)
Malme-3M
  GI50: > 100 µM (inactive)
NCI-H226
  GI50: > 100 µM (inactive)

## CCOC(=O)/C(C#N)=C\C=C1/C=CN=C2NCCN21
COLO 205
  GI50: > 100 µM (inactive)
MOLT-4
  GI50: > 100 µM (inactive)
SN12C
  GI50: > 100 µM (inactive)
KM-20L2
  GI50: > 100 µM (inactive)
CAKI-1
  GI50: > 100 µM (inactive)
U-251
  GI50: > 100 µM (inactive)
NCI-H23
  GI50: > 100 µM (inactive)
EKVX
  GI50: > 100 µM (inactive)
CCRF-CEM
  GI50: > 100 µM (inactive)
RPMI-8226
  GI50: > 100 µM (inactive)
LOX IMVI
  GI50: > 100 µM (inactive)
HL-60
  GI50: > 100 µM (inactive)
SK-OV-3
  GI50: > 100 µM (inactive)
HOP-62
  GI50: > 100 µM (inactive)
Malme-3M
  GI50: > 100 µM (inactive)
NCI-H226
  GI50: > 100 µM (inactive)

## CCOP(=O)(Cc1ccc(CP(=O)(OCC)OCC)n1C)OCC
COLO 205
  GI50: > 100 µM (inactive)
MOLT-4
  GI50: > 100 µM (inactive)
SN12C
  GI50: > 100 µM (inactive)
OVCAR-5
  GI50: > 100 µM (inactive)
KM-20L2
  GI50: > 100 µM (inactive)
CAKI-1
  GI50: > 100 µM (inactive)
U-251
  GI50: > 100 µM (inactive)
NCI-H23
  GI50: > 100 µM (inactive)
EKVX
  GI50: > 100 µM (inactive)
CCRF-CEM
  GI50: > 100 µM (inactive)
RPMI-8226
  GI50: > 100 µM (inactive)
LOX IMVI
  GI50: > 100 µM (inactive)
HOP-92
  GI50: > 100 µM (inactive)
HL-60
  GI50: > 100 µM (inactive)
SK-OV-3
  GI50: > 100 µM (inactive)
HOP-62
  GI50: > 100 µM (inactive)
Malme-3M
  GI50: > 100 µM (inactive)

## Cc1cccc(N2C(=O)C(=O)C(c3nc4ccccc4s3)/C(=N/NC(=S)NN)C2=O)c1C (centres undefined)
COLO 205
  GI50: > 100 µM (inactive)
MOLT-4
  GI50: 90.6 µM (inactive)
SN12C
  GI50: > 100 µM (inactive)
OVCAR-5
  GI50: > 100 µM (inactive)
KM-20L2
  GI50: > 100 µM (inactive)
CAKI-1
  GI50: > 100 µM (inactive)
U-251
  GI50: > 100 µM (inactive)
NCI-H23
  GI50: > 100 µM (inactive)
EKVX
  GI50: > 100 µM (inactive)
RPMI-8226
  GI50: > 100 µM (inactive)
LOX IMVI
  GI50: > 100 µM (inactive)
HOP-92
  GI50: > 100 µM (inactive)
SK-OV-3
  GI50: > 100 µM (inactive)
HOP-62
  GI50: > 100 µM (inactive)
Malme-3M
  GI50: > 100 µM (inactive)
NCI-H226
  GI50: > 100 µM (inactive)

## O=[N+]([O-])c1cccc(C2ON2C2CCCCC2)c1 (centres undefined)
COLO 205
  GI50: 17.6 µM (inactive)
MOLT-4
  GI50: 18.3 µM (inactive)
SN12C
  GI50: 18.3 µM (inactive)
OVCAR-5
  GI50: > 100 µM (inactive)
KM-20L2
  GI50: 22.3 µM (inactive)
CAKI-1
  GI50: 24.2 µM (inactive)
U-251
  GI50: 3.98 µM (inactive)
NCI-H23
  GI50: 24.7 µM (inactive)
EKVX
  GI50: 44 µM (inactive)
CCRF-CEM
  GI50: 4.88 µM (inactive)
RPMI-8226
  GI50: 2.94 µM (inactive)
HOP-92
  GI50: 45.9 µM (inactive)
HL-60
  GI50: 17.5 µM (inactive)
SK-OV-3
  GI50: 35.2 µM (inactive)
HOP-62
  GI50: 31.1 µM (inactive)
Malme-3M
  GI50: 22.8 µM (inactive)

## O=c1c2cc(Br)ccc2nc(-c2ccccc2Cl)n1NCC1(O)OCC(O)C(O)C1O (centres undefined)
COLO 205
  GI50: > 100 µM (inactive)
MOLT-4
  GI50: 57.1 µM (inactive)
SN12C
  GI50: > 100 µM (inactive)
OVCAR-5
  GI50: > 100 µM (inactive)
KM-20L2
  GI50: > 100 µM (inactive)
CAKI-1
  GI50: > 100 µM (inactive)
U-251
  GI50: > 100 µM (inactive)
NCI-H23
  GI50: > 100 µM (inactive)
EKVX
  GI50: > 100 µM (inactive)
CCRF-CEM
  GI50: 46.7 µM (inactive)
RPMI-8226
  GI50: 99.1 µM (inactive)
LOX IMVI
  GI50: > 100 µM (inactive)
HL-60
  GI50: 33.6 µM (inactive)
SK-OV-3
  GI50: > 100 µM (inactive)
HOP-62
  GI50: > 100 µM (inactive)
Malme-3M
  GI50: > 100 µM (inactive)
NCI-H226
  GI50: 0.434 µM (active)

## N#Cc1ccccc1NC(=O)C(=O)C(C(=O)c1ccncc1)C1OC(=O)c2ccccc21 (centres undefined)
COLO 205
  GI50: > 100 µM (inactive)
SN12C
  GI50: > 100 µM (inactive)
OVCAR-5
  GI50: > 100 µM (inactive)
KM-20L2
  GI50: > 100 µM (inactive)
CAKI-1
  GI50: > 100 µM (inactive)
U-251
  GI50: > 100 µM (inactive)
NCI-H23
  GI50: > 100 µM (inactive)
EKVX
  GI50: > 100 µM (inactive)
CCRF-CEM
  GI50: 79.3 µM (inactive)
LOX IMVI
  GI50: > 100 µM (inactive)
HOP-92
  GI50: > 100 µM (inactive)
HL-60
  GI50: > 100 µM (inactive)
SK-OV-3
  GI50: > 100 µM (inactive)
HOP-62
  GI50: > 100 µM (inactive)
Malme-3M
  GI50: > 100 µM (inactive)
NCI-H226
  GI50: > 100 µM (inactive)

## CC(C)(C)[Si](C)(C)O/N=C\c1ccc(O[Si](C)(C)C(C)(C)C)cc1
COLO 205
  GI50: > 100 µM (inactive)
MOLT-4
  GI50: 41.3 µM (inactive)
SN12C
  GI50: 61.2 µM (inactive)
OVCAR-5
  GI50: 44.1 µM (inactive)
KM-20L2
  GI50: 44.7 µM (inactive)
CAKI-1
  GI50: > 100 µM (inactive)
U-251
  GI50: 25.2 µM (inactive)
NCI-H23
  GI50: > 100 µM (inactive)
EKVX
  GI50: > 100 µM (inactive)
CCRF-CEM
  GI50: 49.8 µM (inactive)
RPMI-8226
  GI50: 57.5 µM (inactive)
LOX IMVI
  GI50: 21.3 µM (inactive)
HL-60
  GI50: 36.5 µM (inactive)
SK-OV-3
  GI50: > 100 µM (inactive)
HOP-62
  GI50: > 100 µM (inactive)
Malme-3M
  GI50: > 100 µM (inactive)

## COc1cc(C2C(C(=O)Nc3ccccc3)=C(C)NC(C)=C2C(=O)Nc2ccccc2)ccc1O
COLO 205
  GI50: 24.2 µM (inactive)
MOLT-4
  GI50: 27.4 µM (inactive)
SN12C
  GI50: 39.5 µM (inactive)
OVCAR-5
  GI50: > 100 µM (inactive)
KM-20L2
  GI50: 20.1 µM (inactive)
U-251
  GI50: 48.9 µM (inactive)
NCI-H23
  GI50: 39.5 µM (inactive)
EKVX
  GI50: 83.4 µM (inactive)
RPMI-8226
  GI50: 26.4 µM (inactive)
LOX IMVI
  GI50: > 10 µM (inactive)
HOP-92
  GI50: 19.3 µM (inactive)
HL-60
  GI50: 22.4 µM (inactive)
HOP-62
  GI50: > 100 µM (inactive)
Malme-3M
  GI50: 41.2 µM (inactive)
NCI-H226
  GI50: 49.3 µM (inactive)

## O=S(=O)(OI(OI(OS(=O)(=O)C(F)(F)F)c1ccccc1)c1ccccc1)C(F)(F)F
COLO 205
  GI50: 51.2 µM (inactive)
MOLT-4
  GI50: 20.2 µM (inactive)
SN12C
  GI50: 49.8 µM (inactive)
OVCAR-5
  GI50: > 100 µM (inactive)
KM-20L2
  GI50: 71.6 µM (inactive)
CAKI-1
  GI50: 27.8 µM (inactive)
U-251
  GI50: > 100 µM (inactive)
EKVX
  GI50: 58.9 µM (inactive)
CCRF-CEM
  GI50: 13.9 µM (inactive)
RPMI-8226
  GI50: 11.6 µM (inactive)
LOX IMVI
  GI50: 20 µM (inactive)
HL-60
  GI50: 4.33 µM (inactive)
HOP-62
  GI50: 90.8 µM (inactive)
Malme-3M
  GI50: 11.7 µM (inactive)
NCI-H226
  GI50: 58.6 µM (inactive)
